In article PMC12423301, “Astrocytic monoamine oxidase B (MAOB)–gamma-aminobutyric acid (GABA) axis as a molecular brake on repair following spinal cord injury” (Signal Transduction and Targeted Therapy, 2025):

Columns and labels:
monkey SCI model = test: Monkey SCI model: tissue sections and immunohistochemistry; assay type: in vivo, cynomolgus macaques (Macaca fascicularis)
Protocol: For the nonhuman primate SCI model, female cynomolgus macaques were anesthetized with Zoletil 50 (8–10 mg/kg; Virbac Korea) and isotropy 100. Laminectomy was performed at thoracic level 8 under X-ray guidance, and the SCI model was established using a vessel clip (Micro Serrefine Clamp, 1805501, Fine Science Tools; 60 g pressure, 19 mm) applied for 10 min. After surgery, the monkeys were monitored until full recovery, with precautions taken to prevent hypothermia and dehydration. For pressure ulcers, antibacterial drugs were administered, and sugar therapy was applied as needed.
To determine the appropriate dosing for macaques, interspecies dose translation was performed according to the U.S. FDA’s Guidance for Industry (2005), using body surface area (BSA)-based conversion with species-specific Km values.
On the basis of this calculation, two doses were selected: 3 mg/kg/day (~60% of the HED) for evaluating the minimal effective dose, and 10 mg/kg/day (approximately 2× HED) for assessing upper tolerability and therapeutic margin.
Immunohistochemistry was performed as previously described.[70] The tissue sections were blocked and treated with primary antibodies. After overnight incubation at 4 °C, species-specific fluorescent secondary antibodies were applied for visualization. The tissue sections were then stained with 4’,6-diamidino-2-phenylindole (DAPI) during mounting. This protocol allows a detailed assessment of various cellular markers involved in SCI and recovery processes.

[1] = test system: Parkinson’s disease mouse model; conditions: cited from earlier work
[2] = Body weight of rats on medicated drinking water; assay type: in vivo, rat
Protocol: (S)-2-(((4’-Trifluoromethylbiphenyl-4-yl)methyl)amino)propanamide methane-sulfonate (KDS2010) was dissolved in distilled water. For SD rats, KDS2010 was administered via the drinking water ad libitum. […] To evaluate dose-dependent effects, additional groups received 20 mg/kg/day or 30 mg/kg/day starting at PI 2 weeks. To achieve consistent exposure across animals, we meticulously monitored the daily water intake and body weight of each rat throughout the study. As shown in the Extended Data (Supplementary Table 1), water consumption was calculated weekly via a formula based on body weight (e.g., d.w = weight × 0.09 at week 0; gradually tapering to weight × 0.075 by weeks 8–9). Importantly, all animals were confirmed to have consumed the entirety of the provided medicated water each day, ensuring full ingestion of the intended dose (10 mg/kg/day for the majority of groups, and 20/30 mg/kg/day for the dose-dependent experiments).

[3] = set-up: method as in PMID 30906861; conditions: cited from earlier work
APP/PS1 transgenic mice = test: Tonic GABA current, neuronal firing and DAO compensation in APP/PS1 mice; assay type: in vivo, mouse
[4] = GLP toxicity tests in monkeys
[5] = GLP toxicity tests in rats

## CS(=O)(=O)O.C[C@H](NCc1ccc(-c2ccc(C(F)(F)F)cc2)cc1)C(N)=O [KDS2010, (S)-2-(((4’-Trifluoromethylbiphenyl-4-yl)methyl)amino)propanamide methane-sulfonate]
Monkey SCI model; 3 or 10 mpk from the acute phase, PI 5w
  hematoma and cavity formation at the injury site: significantly reduced
Monkey SCI model; SCI + KDS 3 mpk, PI 5w
  MAP2 intensity vs SCI + V: tended to increase
Monkey SCI model; SCI + KDS 10 mpk, PI 5w
  MAP2 intensity vs SCI + V: significantly greater
Monkey SCI model; both KDS treatment groups (3 and 10 mpk), PI 5w
  astrocytic MAOB: significantly reduced
Monkey SCI model; cynomolgus macaques, for 5 weeks
  pharmacologically active dose (PAD): 3 mpk
[1]
  motor impairment: reverse
[2]; SCI/KDS 2w 20mpk, 0w
  Weekly change in body weight: 0.00 g
[2]; SCI/KDS 2w 20mpk, 1w
  Weekly change in body weight: 29.33 g
[2]; SCI/KDS 2w 20mpk, 2w
  Weekly change in body weight: 13.61 g
[2]; SCI/KDS 2w 20mpk, 3w
  Weekly change in body weight: 54.00 g
[2]; SCI/KDS 2w 20mpk, 4s
  Weekly change in body weight: 16.28 g
[2]; SCI/KDS 2w 20mpk, 5s
  Weekly change in body weight: 31.61 g
[2]; SCI/KDS 2w 20mpk, 6s
  Weekly change in body weight: 12.56 g
[2]; SCI/KDS 2w 20mpk, 7w
  Weekly change in body weight: 24.17 g
[2]; SCI/KDS 2w 20mpk, 8w
  Weekly change in body weight: 13.00 g
[2]; SCI/KDS 2w 20mpk, 9w
  Weekly change in body weight: 10.89 g
[2]; SCI/KDS 2w 30mpk, 0w
  Weekly change in body weight: 0.00 g
[2]; SCI/KDS 2w 30mpk, 1w
  Weekly change in body weight: 34.43 g
[2]; SCI/KDS 2w 30mpk, 2w
  Weekly change in body weight: 10.86 g
[2]; SCI/KDS 2w 30mpk, 3w
  Weekly change in body weight: 39.90 g
[2]; SCI/KDS 2w 30mpk, 4s
  Weekly change in body weight: 17.36 g
[2]; SCI/KDS 2w 30mpk, 5s
  Weekly change in body weight: 22.40 g
[2]; SCI/KDS 2w 30mpk, 6s
  Weekly change in body weight: 10.84 g
[2]; SCI/KDS 2w 30mpk, 7w
  Weekly change in body weight: 19.91 g
[2]; SCI/KDS 2w 30mpk, 8w
  Weekly change in body weight: 17.56 g
[2]; SCI/KDS 2w 30mpk, 9w
  Weekly change in body weight: 3.43 g
[2]; SCI/KDS 2w, 0w
  Weekly change in body weight: 0.00 g
[2]; SCI/KDS 2w, 1w
  Weekly change in body weight: 47.67 g
[2]; SCI/KDS 2w, 2w
  Weekly change in body weight: 16.00 g
[2]; SCI/KDS 2w, 3w
  Weekly change in body weight: 33.67 g
[2]; SCI/KDS 2w, 4s
  Weekly change in body weight: 31.00 g
[2]; SCI/KDS 2w, 5s
  Weekly change in body weight: 31.33 g
[2]; SCI/KDS 2w, 6s
  Weekly change in body weight: 16.67 g
[2]; SCI/KDS 2w, 7w
  Weekly change in body weight: 18.33 g
[2]; SCI/KDS 2w, 8w
  Weekly change in body weight: 11.67 g
[2]; SCI/KDS 2w, 9w
  Weekly change in body weight: 7.17 g
[2]; SCI/KDS 2w, 10w
  Weekly change in body weight: 14.50 g
[2]; SCI/KDS 2w, 11w
  Weekly change in body weight: 8.00 g
[2]; SCI/KDS 2w, 12w
  Weekly change in body weight: 1.50 g
[2]; SCI/KDS 2w, 13w
  Weekly change in body weight: 7.50 g
[2]; SCI/KDS 6w, 0w
  Weekly change in body weight: 0.00 g
[2]; SCI/KDS 6w, 1w
  Weekly change in body weight: 24.00 g
[2]; SCI/KDS 6w, 2w
  Weekly change in body weight: 27.50 g
[2]; SCI/KDS 6w, 3w
  Weekly change in body weight: 36.00 g
[2]; SCI/KDS 6w, 4s
  Weekly change in body weight: 31.50 g
[2]; SCI/KDS 6w, 5s
  Weekly change in body weight: 14.50 g
[2]; SCI/KDS 6w, 6s
  Weekly change in body weight: 13.00 g
[2]; SCI/KDS 6w, 7w
  Weekly change in body weight: 17.50 g
[2]; SCI/KDS 6w, 8w
  Weekly change in body weight: 7.00 g
[2]; SCI/KDS 6w, 9w
  Weekly change in body weight: 13.00 g
[2]; SCI/KDS 6w, 10w
  Weekly change in body weight: 11.00 g
[2]; SCI/KDS 6w, 11w
  Weekly change in body weight: 8.00 g
[2]; SCI/KDS 6w, 12w
  Weekly change in body weight: 7.00 g
[2]; SCI/KDS 6w, 13w
  Weekly change in body weight: 8.00 g
[2]; SCI/KDS 1d, 0w
  Weekly change in body weight: 0.00 g
[2]; SCI/KDS 1d, 1w
  Weekly change in body weight: -44.55 g
[2]; SCI/KDS 1d, 2w
  Weekly change in body weight: 21.82 g
[2]; SCI/KDS 1d, 3w
  Weekly change in body weight: 23.03 g
[2]; SCI/KDS 1d, 4s
  Weekly change in body weight: 50.91 g
[2]; SCI/KDS 1d, 5s
  Weekly change in body weight: 28.03 g
[2]; SCI/KDS 1d, 6s
  Weekly change in body weight: 16.82 g
[2]; SCI/KDS 1d, 7w
  Weekly change in body weight: 19.85 g
[2]; SCI/KDS 1d, 8w
  Weekly change in body weight: 14.70 g
[2]; SCI/KDS 1d, 9w
  Weekly change in body weight: 7.88 g
[2]; Sham/KDS 2w, 0w
  Weekly change in body weight: 0.00 g
[2]; Sham/KDS 2w, 1w
  Weekly change in body weight: 33.00 g
[2]; Sham/KDS 2w, 2w
  Weekly change in body weight: 17.00 g
[2]; Sham/KDS 2w, 3w
  Weekly change in body weight: 32.00 g
[2]; Sham/KDS 2w, 4s
  Weekly change in body weight: 31.00 g
[2]; Sham/KDS 2w, 5s
  Weekly change in body weight: 21.00 g
[2]; Sham/KDS 2w, 6s
  Weekly change in body weight: 8.00 g
[2]; Sham/KDS 2w, 7w
  Weekly change in body weight: 25.00 g
[2]; Sham/KDS 2w, 8w
  Weekly change in body weight: 10.00 g
[2]; Sham/KDS 2w, 9w
  Weekly change in body weight: 10.00 g
[2]; Sham/KDS 1d, 0w
  Weekly change in body weight: 0.00 g
[2]; Sham/KDS 1d, 1w
  Weekly change in body weight: 26.67 g
[2]; Sham/KDS 1d, 2w
  Weekly change in body weight: 3.33 g
[2]; Sham/KDS 1d, 3w
  Weekly change in body weight: 30.00 g
[2]; Sham/KDS 1d, 4s
  Weekly change in body weight: 50.00 g
[2]; Sham/KDS 1d, 5s
  Weekly change in body weight: 25.00 g
[2]; Sham/KDS 1d, 6s
  Weekly change in body weight: 21.67 g
[2]; Sham/KDS 1d, 7w
  Weekly change in body weight: 18.33 g
[2]; Sham/KDS 1d, 8w
  Weekly change in body weight: 8.33 g
[2]; Sham/KDS 1d, 9w
  Weekly change in body weight: 23.33 g
[3]
  permeability across the blood‒brain barrier: highly permeable
APP/PS1 transgenic mice; 1 mg/kg and 10 mg/kg vs induced control group
  tonic GABA current in granule cells of the dentate gyrus: dose-dependent reduction
APP/PS1 transgenic mice; 4-week repeated dosing test, at 2 weeks and 4 weeks
  neuronal firing: maintained at a level similar to that of the normal group
APP/PS1 transgenic mice; long-term administration
  DAO (diamine oxidase) compensatory mechanism: did not induce
[4]; oral 0, 10, 20, and 40 mg/kg for 4 weeks, 2 weeks recovery
  adverse effects: no adverse effects related to the test substance
[4]; oral 2 weeks, 100 mg/kg/day male and female, 50 mg/kg/day male
  mortality: a dying condition or mortality was observed
[5]; from rat MTD
  human equivalent dose (HED) of MTD: 6774.2 mg/60kg
[5]; oral 30, 50, 75 and 100 mg/kg once daily for 4 weeks
  histopathology (kidneys, bladder, testis, epididymis and lungs): histopathological changes
[5]; oral 50-200 mg/kg daily for 2 weeks
  mortality: no deaths
